Here are results for 21 compounds from patent US7741337B2, “Azonafide derivatives, methods for their production and pharmaceutical compositions therefrom” (Unibioscreen S.A., priority 2005, dated 2010).

The structures appear in SMILES notation. Structures can show the parent of a compound that is named as a salt.

The first assay relates to human cancer cell lines Hs683, U-373MG, HCT-15, LoVo, A549 and MCF-7. Put plainly: MTT test, effect on overall cell growth (mean of six cell lines, examples 3 to 26). Format: cell-based. As to conditions: mean of six cell lines Hs683, U-373MG, A549, MCF-7, 72 hours incubation, range of molar concentrations resulting in 50% inhibition of overall tumor cells growth. The method, then:
(§1) MTT tests were performed in order to rapidly, i.e. within 5 days, measure the effect of azonafide derivatives of this invention on the overall cell growth. The test measures the number of metabolically active living cells that are able to transform the yellow product 3-(4,5-dimethylthiazol-2-yl)-2,5-diphenyl tetrazolium bromide (herein referred as MTT) into the blue product formazan dye by mitochondrial reduction. The amount of formazan obtained at the end of the experiment, measured by means of a spectrophotometer, is directly proportional to the number of living cells. Optical density determination thus enables a quantitative measurement of the effect of the investigated compounds as compared to the control condition (untreated cells) and/or to other reference compounds.
(§2) Height human cancer cell lines described in table 1 were used in the following MTT tests. These cell lines cover six histological cancer types, being prostate, glioma, pancreas, colon, lung and breast cancers. Cells were allowed to grow in 96-well micro-wells with a flat bottom with an amount of 100 μl of cell suspension per well with 1,000 to 4,000 cells/well depending on the cell type used. Each cell line was seeded in a well known MEM 5% serum culture medium.
(§3) The detailed experimental procedure was as following: after a 24-hour period of incubation at 37° C., the culture medium was replaced by 100 μl of fresh medium in which the compound to be tested was dissolved at the following molar concentrations: 10^−9 M, 5.10^−9 M, 10^−8 M, 5.10^−8 M, 10^−7 M, 5.10^−7 M, 10^−6 M, 5.10^−6 M and 10^−5 M. Each experiment was repeated 6 times.
(§4) After 72 hours of incubation at 37° C. with (experimental conditions) or without (control condition) the compound to be tested, the medium was replaced by 100 μl MTT dissolved in RPMI at a concentration of 1 mg/ml. The micro-wells were subsequently incubated during 3 hours at 37° C. and centrifuged at 400 g during 10 minutes. MTT was removed and formazan crystals formed were dissolved in 100 μl DMSO. The micro-wells were shaken for 5 minutes and read on a spectrophotometer at wavelengths of 570 nm (maximum formazan absorbance) and 630 nm (back-ground noise).
(§5) For each experimental condition, the mean optical density was calculated, as well as the percentage of remaining living cells in comparison with the control.
(§6) IC50 values for compounds of examples 3 to 26 were obtained on cell lines Hs683, U-373MG, HCT-15, LoVo, A549 and MCF-7 described in Table 1. IC50 values for compounds from examples 27 to 45 were obtained on cell lines PC3, U-373MG, BxPC3, LoVo, A549 and MCF-7 described in Table 1.
As for `CN(C)CCN1C(=O)c2cccc3cc4c(N)cccc4c(c23)C1=O` [Example 4, 8-amino-2-[2-(dimethylamino)ethyl]-1H-dibenzo[de,h]isoquinoline-1,3(2H)-dione, reference compound], the IC50 lay within 1 to 5 µM.

In turn, `CN(C)CCN1C(=O)c2cccc3cc4c(NC(=O)NC(=O)c5ccccc5)cccc4c(c23)C1=O` [Example 16, N-({2-[2-(dimethylamino)ethyl]-1,3-dioxo-2,3-dihydro-1H-dibenzo[de,h]isoquinolin-8-yl}carbamoyl)benzamide hydrochloride] registered an IC50 of 1 to 5 µM.

For `CN(C)CCN1C(=O)c2cccc3cc4cccc(NC(=O)Oc5ccccc5)c4c(c23)C1=O` [Example 18, phenyl {2-[2-(dimethylamino)ethyl]-1,3-dioxo-2,3-dihydro-1H-dibenzo[de,h]isoquinolin-11-yl}carbamate], the 50% inhibitory concentration (IC50) was > 10 µM.

Take `CCCCCCCCCC(=O)CC(=O)Nc1cccc2cc3cccc4c3c(c12)C(=O)N(CCN(C)C)C4=O` [Example 20, N-{2-[2-(dimethylamino)ethyl]-1,3-dioxo-2,3-dihydro-1H-dibenzo[de,h]isoquinolin-11-yl}-3-oxododecanamide]: the IC50 is > 10 µM.

Turning to `CN(C)CCN1C(=O)c2cccc3cc4cccc(NC(=O)CC(=O)CCc5ccccc5)c4c(c23)C1=O` [Example 22, N-{2-[2-(dimethylamino)ethyl]-1,3-dioxo-2,3-dihydro-1H-dibenzo[de,h]isoquinolin-11-yl}-3-oxo-5-phenylpentanamide], the IC50 is > 10 µM.

With `CCOC(=O)CCC(=O)CC(=O)Nc1cccc2cc3cccc4c3c(c12)C(=O)N(CCN(C)C)C4=O` [Example 23, ethyl 6-({2-[2-(dimethylamino)ethyl]-1,3-dioxo-2,3-dihydro-1H-dibenzo[de,h]isoquinolin-11-yl}amino)-4,6-dioxohexanoate], the 50% inhibitory concentration (IC50) was > 10 µM.

Another assay relates to human cancer cell lines PC3, U-373MG, BxPC3, LoVo, A549 and MCF-7. Put plainly: MTT test, effect on overall cell growth (mean of six cell lines, examples 27 to 45). Format: cell-based. As to conditions: mean of six cell lines PC3, U-373MG, A549, MCF-7, 72 hours incubation, range of molar concentrations resulting in 50% inhibition of overall tumor cells growth. The method, then:
as §1, §2, §3, §4, §5, §6
Turning to `CN(C)CCN1C(=O)c2cccc3cc4cccc(NC(=O)OCCCCCl)c4c(c23)C1=O` [Example 28, 4-chlorobutyl {2-[2-(dimethylamino)ethyl]-1,3-dioxo-2,3-dihydro-1H-dibenzo[de,h]isoquinolin-11-yl}carbamate], the IC50 is > 10 µM.

For `CN(C)CCN1C(=O)c2cccc3cc4cccc(NC(=S)Nc5ccc(Br)cc5)c4c(c23)C1=O` [Example 30, 1-{2-[2-(dimethylamino)ethyl]-1,3-dioxo-2,3-dihydro-1H-dibenzo[de,h]isoquinolin-11-yl}-3-[4-bromophenyl]thiourea], the concentration for half-maximal inhibition (IC50) was > 10 µM.

For the compound `COCCNC(=S)Nc1cccc2cc3cccc4c3c(c12)C(=O)N(CCN(C)C)C4=O` [Example 32, 1-{2-[2-(dimethylamino)ethyl]-1,3-dioxo-2,3-dihydro-1H-dibenzo[de,h]isoquinolin-11-yl}-3-[2-methoxyethyl]thiourea], the 50% inhibitory concentration (IC50) fell in the range of 5 to 10 µM.

With `CC(C)c1ccc(NC(=S)Nc2cccc3cc4cccc5c4c(c23)C(=O)N(CCN(C)C)C5=O)cc1` [Example 33, 1-{2-[2-(dimethylamino)ethyl]-1,3-dioxo-2,3-dihydro-1H-dibenzo[de,h]isoquinolin-11-yl}-3-[4-isopropylphenyl]thiourea], the concentration for half-maximal inhibition (IC50) is > 10 µM.

Take `COc1ccc(NC(=S)Nc2cccc3cc4cccc5c4c(c23)C(=O)N(CCN(C)C)C5=O)cc1` [Example 34, 1-{2-[2-(dimethylamino)ethyl]-1,3-dioxo-2,3-dihydro-1H-dibenzo[de,h]isoquinolin-11-yl}-3-[4-methoxyphenyl]thiourea]: the half-maximal inhibitory concentration (IC50) was > 10 µM.

With `CCNC(=S)Nc1cccc2cc3cccc4c3c(c12)C(=O)N(CCN(C)C)C4=O` [Example 35, 1-{2-[2-(dimethylamino)ethyl]-1,3-dioxo-2,3-dihydro-1H-dibenzo[de,h]isoquinolin-11-yl}-3-[ethyl]thiourea], the 50% inhibitory concentration (IC50) is > 10 µM.

As to `C=CCNC(=S)Nc1cccc2cc3cccc4c3c(c12)C(=O)N(CCN(C)C)C4=O` [Example 36, 1-{2-[2-(dimethylamino)ethyl]-1,3-dioxo-2,3-dihydro-1H-dibenzo[de,h]isoquinolin-11-yl}-3-[allyl]thiourea], the 50% inhibitory concentration (IC50) was > 10 µM.

In the case of `COc1ccccc1NC(=S)Nc1cccc2cc3cccc4c3c(c12)C(=O)N(CCN(C)C)C4=O` [Example 37, 1-{2-[2-(dimethylamino)ethyl]-1,3-dioxo-2,3-dihydro-1H-dibenzo[de,h]isoquinolin-11-yl}-3-[2-methoxyphenyl]thiourea], the half-maximal inhibitory concentration (IC50) is > 10 µM.

For the compound `CN(C)CCN1C(=O)c2cccc3cc4cccc(NC(=S)Nc5cccnc5)c4c(c23)C1=O` [Example 38, 1-{2-[2-(dimethylamino)ethyl]-1,3-dioxo-2,3-dihydro-1H-dibenzo[de,h]isoquinolin-11-yl}-3-[3-pyridyl]thiourea], the IC50 is > 10 µM.

`CN(C)CCN1C(=O)c2cccc3cc4cccc(NC(=S)Nc5ccc(Br)cc5OC(F)(F)F)c4c(c23)C1=O` [Example 39, 1-{2-[2-(dimethylamino)ethyl]-1,3-dioxo-2,3-dihydro-1H-dibenzo[de,h]isoquinolin-11-yl}-3-[2-trifluoromethoxy4-bromophenyl]thiourea]: the IC50 was > 10 µM.

As for `CN(C)CCN1C(=O)c2cccc3cc4cccc(NC(=S)NCc5ccco5)c4c(c23)C1=O` [Example 40, 1-{2-[2-(dimethylamino)ethyl]-1,3-dioxo-2,3-dihydro-1H-dibenzo[de,h]isoquinolin-11-yl}-3-[2-furylmethyl]thiourea], the concentration for half-maximal inhibition (IC50) was 1 to 5 µM.

`CN(C)CCN1C(=O)c2cccc3cc4cccc(NC(=S)Nc5ccc(C(F)(F)F)cc5)c4c(c23)C1=O` [Example 41, 1-{2-[2-(dimethylamino)ethyl]-1,3-dioxo-2,3-dihydro-1H-dibenzo[de,h]isoquinolin-11-yl}-3-[4-trifluoromethylphenyl]thiourea] registered a half-inhibitory concentration (IC50) of 1 to 5 µM.

Take `CN(C)CCN1C(=O)c2cccc3cc4cccc(NC(=S)Nc5ccc6nsnc6c5)c4c(c23)C1=O` [Example 43, 1-(2,1,3-Benzothiadiazol-5-yl)-3-{2-[2-(dimethylamino)ethyl]-1,3-dioxo-2,3-dihydro-1H-dibenzo[de,h]isoquinolin-11-yl}thiourea]: the half-inhibitory concentration (IC50) was in the range of 1 to 5 µM.

Turning to `CN(C)CCN1C(=O)c2cccc3cc4cccc(NC(=S)Nc5ccccc5OC(F)(F)F)c4c(c23)C1=O` [Example 45, 1-{2-[2-(dimethylamino)ethyl]-1,3-dioxo-2,3-dihydro-1H-dibenzo[de,h]isoquinolin-11-yl}-3-[2-(trifluoromethoxy)phenyl]thiourea], the IC50 is > 10 µM.

Another assay deals with A549 (Lung cancer) cells. Put plainly: Effect on cell migration, A549. Format: cell-based. As to conditions: Homo sapiens, 22 hours on the 25% of most motile cells, at 10^−8 M, p value in same cell, read-out: Maximum effects (cell migration). The method, then:
(§7) Cells of different cancer lines, i.e. U-373 MG (Glioma cancer), PC3 (prostate cancer and A549 (Lung cancer) were seeded on culture flask 48 hours before the migration experiment. On the test day, cells were treated with or without the azonafide derivatives mentioned in table 3 in closed Falcon dishes containing a buffered medium at a controlled temperature (37.0±0.1° C.) for 12 or 22 hours, as noted in the right column of table 3. The azonafide derivatives were used at three non-cytotoxic concentrations (10^−6 M, 10^−7, 10^−8 M). Migration of the cells was observed by means of a CCD-camera mounted on a phase-contrast microscope. Statistical analysis of the migration, with the non-parametric Mann-Whitney test, was established for 25% and 50% of the most motile cells and for the entire cell population.
For `C=CCOC(=O)Nc1cccc2cc3cccc4c3c(c12)C(=O)N(CCN(C)C)C4=O` [Example 26, allyl {2-[2-(dimethylamino)ethyl]-1,3-dioxo-2,3-dihydro-1H-dibenzo[de,h]isoquinolin-11-yl}carbamate], the Emax at 0.01 µM was -29%.

For the next assay, the system named is U-373 MG, PC-3 and/or A549 cancer cells. Kind of assay: Effect on cell migration, summary of table 3. To be noted: U-373 MG, PC-3 and/or A549 cancer cells at the non-cytotoxic concentrations of this study. It is filed as cell-based, human. The method, then:
as §7
Consider `C=CCOC(=O)Nc1cccc2cc3cccc4c3c(c12)C(=O)N(CCN(C)C)C4=O` [Example 26, allyl {2-[2-(dimethylamino)ethyl]-1,3-dioxo-2,3-dihydro-1H-dibenzo[de,h]isoquinolin-11-yl}carbamate], for which the “migration level of cancer cells” value is reported as “induced a decrease in the migration level”.

Staying with this assay, now noted: comparison drawn from table 3.
With `C=CCOC(=O)Nc1cccc2cc3cccc4c3c(c12)C(=O)N(CCN(C)C)C4=O` [Example 26, allyl {2-[2-(dimethylamino)ethyl]-1,3-dioxo-2,3-dihydro-1H-dibenzo[de,h]isoquinolin-11-yl}carbamate], the “cell migration activity compared with the closest compounds known in the art” value is given as “significantly greater cell migration activity than the closest compounds known in the art, or similar cell migration activity at significantly lower concentrations”.
